Results published in PubChem BioAssay AID732 (Emory University Molecular Libraries Screening Center, 2007).
Activity calls are given as the source filed them. How the calls were made is not given here.

Tested on: in vivo angiogenesis, blood vessel count
Experiment: reduction of blood vessel formation in vivo – HTS, in vivo study (AID 732);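 further: zebrafish embryos dosed at one day post fertilization; 0% = reference inhibitor and 100% = plate mean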
Conditions: stronger effect = lower value;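 tested at 30 µM in the well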

Compound | vessel count % control
OC[C@H]1O[C@@H](n2cnc3c(N[C@H]4CC5CCC4C5)ncnc32)[C@H](O)[C@@H]1O (some centres undefined) | 77.1% (inactive)
CC(C[N+](C)(C)C)OC(N)=O (centres undefined) | 91.7% (inactive)
CCC(=O)c1ccc2c(c1)N(CCCN(C)C)c1ccccc1S2 | 112% (inactive)
CCCCCC[C@@H]([C@@H](C)O)n1cnc2c(N)ncnc21 | 85.8% (inactive)
CCCn1c(=O)c2[nH]c(-c3ccc(OCC(=O)Nc4ccc(C#N)cc4)cc3)nc2n(CCC)c1=O | 84.9% (inactive)
C[C@H](Cc1ccc(O)c(O)c1)[C@@H](C)Cc1ccc(O)c(O)c1 | 124% (inactive)
CC(C)(CO)Cc1cc(C(C)(C)C)c(O)c(C(C)(C)C)c1 | 105% (inactive)
Cc1oncc1C(=O)Nc1ccc(C(F)(F)F)cc1 | 81.6% (inactive)
CN(C)[C@@H]1C(=O)C(C(N)=O)=C(O)[C@@]2(O)C(=O)C3=C(O)c4c(O)ccc(Cl)c4[C@@H](O)[C@H]3C[C@@H]12 | 87.7% (inactive)
O=C1c2ccccc2-c2n[nH]c3cccc1c23 | 107% (inactive)
COc1ccc(CCN)cc1O | 108% (inactive)
COc1cc2c(cc1C(F)(F)F)N(C(=O)Nc1cc(F)cc(-c3cccnc3)c1)CC2 | 95.3% (inactive)
c1ccc2c(N3CCNCC3)cccc2c1 | 97.1% (inactive)
O=C1NC(c2cccc([N+](=O)[O-])c2)=CCN1c1ccccc1O | 91.3% (inactive)
CN(C)CCC=C1c2ccccc2CCc2ccccc21 | 91.2% (inactive)
Cc1ccc(C(=O)Nc2ccc(S(=O)(=O)O)c3cc(S(=O)(=O)O)cc(S(=O)(=O)O)c23)cc1NC(=O)c1cccc(NC(=O)Nc2cccc(C(=O)Nc3cc(C(=O)Nc4ccc(S(=O)(=O)O)c5cc(S(=O)(=O)O)cc(S(=O)(=O)O)c45)ccc3C)c2)c1 | 119% (inactive)
CCn1cnc2c(Nc3cccc(Cl)c3)nc(N[C@@H]3CCCC[C@@H]3N)nc21 | 88.4% (inactive)
O=Nc1c(-c2c(O)[nH]c3ccc(Cl)cc23)[nH]c2ccccc12 | 88.2% (inactive)
CC(C)C[C@H](NC(=O)[C@@H](O)[C@H](N)Cc1ccccc1)C(=O)O | 123% (inactive)
CCCN(CCC)[C@@H]1CCc2cccc(O)c2C1 | 94.1% (inactive)
CC(=O)O[C@H]1CC2(C)[C@@H](C[C@@H](O)[C@H]3[C@@]4(C)CC[C@@H](O)[C@@H](C)[C@@H]4CC[C@@]32C)C1=C(CCC=C(C)C)C(=O)O (some centres undefined) | 100% (inactive)
O=Nc1c(-c2c(O)[nH]c3c(Cl)cc(Cl)cc23)[nH]c2ccc(Br)cc12 | 126% (inactive)
CN1CCN(C2=Nc3cc(Cl)ccc3Nc3ccccc32)CC1 | 98.7% (inactive)
N#C/C(=C\c1ccc(O)c(O)c1)C(=O)NCc1ccccc1 | 95.6% (inactive)

Compound | vessel count % control
Nc1ccc(CCNc2ncnc3c2ncn3C2OC(CO)C(O)C2O)cc1 (centres undefined) | 110% (inactive)
CNC1(C)C2CCC(C2)C1(C)C (centres undefined) | 107% (inactive)
CCCN1CCc2cccc3c2[C@H]1Cc1ccc(O)c(O)c1-3 | 89.9% (inactive)
CC1CN(S(=O)(=O)c2cccc3cnccc23)CCN1 (centres undefined) | 97.8% (inactive)
CCS(=O)(=O)Nc1cccc(C(=C2CCCCC2)c2cnc[nH]2)c1 | 98.4% (inactive)
CCn1cc(C(=O)O)c(=O)c2cc(F)c(N3CCNC(C)C3)c(F)c21 (centres undefined) | 89.7% (inactive)
CN1CCc2cccc3c2C1Cc1ccc(O)c(O)c1-3 (centres undefined) | 0% (inactive)
Cc1nc2c([nH]1)c(=O)n(C)c(=O)n2Cc1ccco1 | 93.1% (inactive)
OC[C@H]1O[C@@H](n2cnc3c(NC4CCCC4)ncnc32)C(O)[C@H]1O (some centres undefined) | 94.3% (inactive)
CCC1(O)CC2CN(CCc3c([nH]c4ccccc34)[C@@](C(=O)OC)(c3cc4c(cc3OC)N(C=O)C3[C@]45CCN4CC=C[C@@](CC)([C@@H](OC(C)=O)[C@]3(O)C(=O)OC)[C@H]45)C2)C1 (some centres undefined) | 109% (inactive)
CN(C)c1nc(N)c(C(=O)N=C(N)N)nc1Cl | 106% (inactive)
O=C(O)/C=C/c1ccc(O)c(O)c1 | 108% (inactive)
CC(=O)c1ccc(S(=O)(=O)NC(=O)NC2CCCCC2)cc1 | 84.8% (inactive)
CN[C@H](CC(=O)O)C(=O)O | 86.7% (inactive)
CC(C(O)c1ccc(O)cc1)N1CCC(Cc2ccccc2)CC1 (centres undefined) | 0% (inactive)
O=C(O)[C@@H]1C[C@@H](C(=O)O)N1 | 99.6% (inactive)
COc1ccc2[nH]c(I)c(CCNC(C)=O)c2c1 | 107% (inactive)
CCCCc1ccc(C(=O)O)nc1 | 115% (inactive)
CP(=O)(O)C1=CCNCC1 | 116% (inactive)
CC(C)Cc1ccc(C(C)C(=O)O)cc1 (centres undefined) | 138% (inactive)
NCCCCC(=O)O | 84.3% (inactive)
NC(=O)N1c2ccccc2C=Cc2ccccc21 | 96.4% (inactive)
O=C(O)c1cc(=O)cc(C(=O)O)[nH]1 | 86.1% (inactive)
CC(=O)OCC(=O)[C@@]1(O)CC[C@H]2[C@@H]3CCC4=CC(=O)CC[C@]4(C)[C@H]3C(=O)C[C@@]21C | 97.3% (inactive)

Compound | vessel count % control
NS(=O)(=O)c1cc2c(cc1Cl)NCNS2(=O)=O | 103% (inactive)
Cc1c2ccncc2c(C)c2c1[nH]c1ccccc12 | 110% (inactive)
O=Nc1c(-c2c(O)[nH]c3ccc(F)cc23)[nH]c2ccccc12 | 48.1% (inactive)
CCc1cccc2c3c([nH]c12)C(CC)(CC(=O)O)OCC3 (centres undefined) | 83.6% (inactive)
CCCCCCCCCCC/C=C\C(C)(C)/C=C\CCCC(=O)O | 79.5% (inactive)
COc1cc(Cc2cnc(N)nc2N)cc(OC)c1OC | 114% (inactive)
CN(C)CCOC(=O)COc1ccc(Cl)cc1 | 102% (inactive)
NCC(O)c1ccc(O)cc1 (centres undefined) | 103% (inactive)
COc1ccc2c(c1)c(CC(=O)O)c(C)n2C(=O)c1ccccc1 | 116% (inactive)
Cn1c(=O)c2[nH]c(-c3ccc(S(=O)(=O)O)cc3)nc2n(C)c1=O | 106% (inactive)
NC(=O)c1ccc(OCC(O)CN2CC=C(c3ccc(F)cc3)CC2)cc1 (centres undefined) | 79.7% (inactive)
NC(N)=NCCC[C@H](N)C(=O)O | 94.3% (inactive)
C[C@]12CC[C@H](O)CC1=CC[C@@H]1[C@@H]2CC[C@]2(C)C(=O)CC[C@@H]12 | 106% (inactive)
CC(=O)OCC1=C(C(=O)O)N2C(=O)[C@@H](NC(=O)Cc3cccs3)[C@H]2SC1 | 132% (inactive)
CN(C)CCCN1c2ccccc2Sc2ccc(Cl)cc21 | 84.3% (inactive)
c1ccc2cc(CC3=NCCN3)ccc2c1 | 120% (inactive)
CN(C)C(N)=NCCC[C@H](N)C(=O)O | 93.3% (inactive)
Clc1cccc(Cl)c1NC1=NCCN1 | 121% (inactive)
Oc1[nH]c2ccccc2c1C1=Nc2ccc(Br)cc2/C1=N\OCCBr | 79.9% (inactive)
COc1cc(NS(C)(=O)=O)ccc1Nc1c2ccccc2nc2ccccc12 | 106% (inactive)
O=C(O)/C(=C/c1c(C(=O)O)[nH]c2cc(Cl)cc(Cl)c12)c1ccccc1 | 108% (inactive)
C[N+](C)(C)CC#CCOC(=O)Nc1cccc(Cl)c1 | 81.2% (inactive)
CC(C)(O)[C@@H]1[C@H]2OC(=O)[C@@H]1[C@]1(O)C[C@H]3O[C@]34C(=O)O[C@H]2[C@]14C (tested in a mixture with another compound) | 116% (inactive)
COC(=O)c1c(-c2cc(OC)c(OC)c(OC)c2)c2ccc(OCc3ccccn3)cc2c(=O)n1-c1ccc(N)cc1 | 109% (inactive)

Compound | vessel count % control
NC(=O)c1cnccn1 | 76.5% (inactive)
CC(=O)NNC(=O)N1Cc2ccccc2Oc2ccc(Cl)cc21 | 0% (inactive)
CC(=O)CCCCn1c(=O)c2c(ncn2C)n(C)c1=O | 109% (inactive)
CCCN1CCC[C@@H](c2cccc(O)c2)C1 | 91.2% (inactive)
NCC1OC(O[C@@H]2[C@H](O)C(OC3C(O)C(N)CC(N)C3OC3OC(CO)C(O)C(O)C3N)O[C@@H]2CO)C(N)C(O)C1O (some centres undefined) | 116% (inactive)
COc1cccc(C(=O)NCCN2CCN(c3ccc(Cl)cc3)CC2)c1 | 66.6% (inactive)
CC(C(=O)O)c1ccc(CC2CCCC2=O)cc1 (centres undefined) | 113% (inactive)
CC(=O)Oc1cc(C(C)C)c(OCCN(C)C)cc1C | 109% (inactive)
O=C(O)CNC(=O)C(CS)Cc1ccccc1 (centres undefined) | 117% (inactive)
COc1ccc2c(c1)c(CC(=O)O)c(C)n2C(=O)c1ccc(Cl)cc1 | 112% (inactive)
Oc1ccc(Cn2cc[nH]c2=S)cc1 | 92.9% (inactive)
Cn1cc(C2=C(c3ccc(Cl)cc3Cl)C(=O)NC2=O)c2ccccc21 | 0% (inactive)
CN(CCOc1ccc(C[C@H](Nc2ccccc2C(=O)c2ccccc2)C(=O)O)cc1)c1ccccn1 | 100% (inactive)
NC/C=C/C(=O)O | 97.5% (inactive)
CC(C)C(=O)Nc1ccc([N+](=O)[O-])c(C(F)(F)F)c1 | 113% (inactive)
CN(C)C(=O)C(CCN1CCC(O)(c2ccc(Cl)cc2)CC1)(c1ccccc1)c1ccccc1 | 126% (inactive)
CN1CCN(C(=O)OC2c3nccnc3C(=O)N2c2ccc(Cl)cn2)CC1 (centres undefined) | 105% (inactive)
COc1ccc(Cc2nccc3cc(OC)c(OC)cc23)cc1OC | 110% (inactive)
COc1ccccc1N1CCN(CCN(C(=O)C2CCCCC2)c2ccccn2)CC1 | 87.8% (inactive)
COc1ccc2cc([C@H](C)C(=O)O)ccc2c1 | 101% (inactive)
O=Nc1c(-c2c(O)[nH]c3ccc([N+](=O)[O-])cc23)[nH]c2ccc(Br)cc12 | 79.3% (inactive)
COc1cc(C[C@@H](C)N)c(OC)cc1I | 93.2% (inactive)
